Measurements from patent US7985771B2, “Furanone derivatives” (Monsanto Technology LLC, priority 2002, dated 2011).

What was measured:
[1] = test system: ELAM (E-selectin) expression in endothelial cells; test: E-selectin (ELAM) cell inflammation assay; type: cell-based; settings: LPS and IL-1β stimulation, read-out: reduction of expression of ELAM, EC50
Description: Endothelial-Leukocyte Adhesion Molecule (ELAM), also known as E-selectin, is expressed on the surface of endothelial cells. In this assay, lipopolysaccharide (LPS) and IL-1β are used to stimulate the expression of ELAM; test agents are tested for their abilities to reduce this expression, in accordance with studies showing that reduction of leukocyte adhesion to endothelial cell surface is associated with decreased cellular damage (e.g., Takada, M., Et al., Transplantation 64: 1520-25, 1997; Steinberg, J. B., et al., J. Heart Lung Trans. 13:306-313, 1994).
Endothelial cells may be selected from any of a number of sources and cultured according to methods known in the art; including, for example, coronary artery endothelial cells, human brain microvascular endothelial cells (HBMEC; Hess, D.C., et al., Neurosci. Left. 213(1): 37-40, 1996), or lung endothelial cells. Cells are conveniently cultured in 96-well plates. Cells are stimulated by adding a solution to each well containing 10 μg/ml LPS and 100 pg/ml IL-1β for 6 hours in the presence of test agent (specific concentrations and time may be adjusted depending on the cell type). Treatment buffer is removed and replaced with pre-warmed Fixing Solution® (100 μl/well) for 25 minutes at room temperature. Cells are then washed 3×, then incubated with Blocking Buffer (PBS+2% FBS) for 25 minutes at room temperature. Blocking Buffer containing Monoclonal E-Selectin Antibody (1:750, Sigma Catalog #S-9555) is added to each well. Plates are sealed and stored at 4° overnight. Plates are washed 4× with 160 μL Blocking Buffer per well. Second Antibody-HRP diluted 1:5000 in Blocking Buffer is then added (100 μL/well), and plates are incubated at room temperature (protected from light) for two hours. Plates are then washed 4× with Blocking Buffer before addition of 100 μL of ABTS Substrate solution at room temperature (Zymed, Catalog #00-2024). Wells are allowed to develop for 35 minutes, before measurement at 402 nm in a Fluoroskan® Reader with shake program for 10 seconds. Positive results are recorded as a decrease in ELAM concentration in tested wells, as compared to control wells.

[2] = test system: IL-1beta release from a mouse microglial cell line; test: Interleukin-1 beta microglial cell assay; type: cell-based; settings: LPS and IFN gamma stimulation, 24 hours, read-out: inhibition of IL-1beta induction, EC50
Description: This assay measures the release of IL-1β from a mouse microglial cell line following an inflammatory challenge with LPS and interferon-gamma. The ability of test articles to inhibit microglial cell activation and IL-1beta release is determined by co-incubation of the test article with the inflammatory challenge. Cytokine release is measured using a mouse IL-1β ELISA and cell toxicity is determined using Cell Tracker Green (a fluorescent dye that measures cell viability).
Mouse microglial cells were seeded in poly-D-lysine coated 96-well plates at a density of 10,000 cells/well and allowed to attach for 24 hours. Cells were stimulated by addition of LPS (10 μg/ml) and IFN gamma (10 ng/ml) in the presence or absence of test article. The cells were then incubated for 24 hours at 37° C., after which time the media was removed and used for cytokine determination as described below.
Viability of mouse microglial cells after exposure to the test article was determined using a fluorescent viability dye, Cell Tracker Green. Cell Tracker Green was used at a working concentration of 5 μM in 1× HBSS. Cells were washed once with HBSS (200 μl/well) and 100 μl Cell Tracker Green was added to each well. Cells were then incubated at 37° C. for 30 minutes, after which time the Cell Tracker was removed and the cells were washed once with HBSS (200 μl/well). 100 μl fresh HBSS was added to each well and the plate was read on a Fluoroskan plate reader using an excitation wavelength of 485 nm and an emission wavelength of 538 nm.
1. The IL-1β capture antibody was reconstituted in 1 ml of PBS to give a final concentration of 720 μg/ml, and the working concentration was 4 μg/ml. For coating one 96-well plate (at 100 μl/well) 56 μl of the 720 μg/ml stock was diluted into 10 ml of PBS. 2. The IL-1β standards were reconstituted in 0.5 ml of Reagent Diluent (70 ng/ml). For a high standard of 1 ng/ml (2 wells at 100 μl each+enough for series dilution) 7.1 μl of the 70 ng/ml standard were diluted into 0.5 ml of Reagent Diluent 3. The IL-1β detection antibody was reconstituted in 1 ml of Reagent Diluent to give a final concentration of 18 μg/ml and the working concentration is 100 ng/ml. For one 96-well plate (at 100 μl/well) 56 μl of the 18 μg/ml stock was diluted into 10 ml of Reagent Diluent.
1. The Costar EIA Hi-binding plate was coated with capture antibody at 4 μg/ml. Each well was coated with 100 μl, and the plate was sealed and incubated overnight at room temperature.
2. Each well was aspirated and washed 3× with Wash Buffer. Each well was filled to the top, dispensed, and any remaining buffer was removed by inverting the plate and gently blotting against clean paper towels.
3. Non-specific binding sites were blocked by adding 300 μl of Blocking Buffer to each well, and after sealing incubating for at least 1 hour at room temperature.
5. 100 μl of either standard or sample were added in each well of the capture-coated and pre-blocked plate. The plate was sealed and incubated for 2 hours at room temperature, followed with washing as in step 2.
6. 100 μl of the detection antibody ([…]) were added to each well.
7. The plate was sealed and incubated at room temperature for 2 hours, followed with washing as in step 2.
8. 100 μl of the working dilution of Streptavidin-HRP was added, and the plate was sealed and incubated in the dark for 20 minutes at room temperature, followed with washing as in Step 2.
9. The fresh Substrate Solution was prepared by mixing Color Reagent A (H2O2) and Color Reagent B (Tetramethylbenzidine) in a 1:1 ratio. 100 μl of this Substrate Solution mixture was added to each well and the plate was incubated in the dark for 20 minutes at room temperature. 10. 50 μl of Stop Solution was added to each well, mixing was ensured by gently tapping. 11. Each plate was read with the Spectramax once at 450 nm. Results

| SMILES | EC50 [1] [µM] | EC50 [2] [µM] |
| --- | --- | --- |
| CCOC(=O)C1(CSc2nc3ccccc3s2)OC(=O)C(O)=C1Sc1nc2ccccc2s1 (stereo not drawn) [3-(Benzothiazol-2-ylsulfanyl)-2-(benzothiazol-2-ylsulfanylmethyl)-4-hydroxy-5-oxo-2,5-dihydro-furan-2-carboxylic acid ethyl ester] | ≤ 30 | ≤ 20 |
| CCOC(=O)C1(C[S+]([O-])Cc2ccco2)OC(=O)C(O)=C1[S+]([O-])Cc1ccco1 (stereo not drawn) [3-(Furan-2-ylmethanesulfinyl)-2-(furan-2-ylmethanesulfinylmethyl)-4-hydroxy-5-oxo-2,5-dihydro-furan-2-carboxylic acid ethyl ester] | ≤ 30 | ≤ 20 |
| CCOC(=O)C1(CSCc2ccco2)OC(=O)C(OC(=O)C(C)C)=C1SCc1ccco1 (stereo not drawn) [3-(Furan-2-ylmethylsulfanyl)-2-(furan-2-ylmethylsulfanylmethyl)-4-isobutyryloxy-5-oxo-2,5-dihydro-furan-2-carboxylic acid ethyl ester] | ≤ 30 | ≤ 20 |
| CCOC(=O)C1(CSCc2ccc(Cl)cc2Cl)OC(=O)C(O)=C1SCc1ccc(Cl)cc1Cl (stereo not drawn) [3-(2,4-Dichloro-benzylsulfanyl)-2-(2,4-dichloro-benzylsulfanylmethyl)-4-hydroxy-5-oxo-2,5-dihydro-furan-2-carboxylic acid ethyl ester] | ≤ 30 | ≤ 20 |
| CCOC(=O)C1(CSc2nc3ccccc3[nH]2)OC(=O)C(OCC)=C1Sc1nc2ccccc2n1CC (stereo not drawn) [2-(1H-Benzoimidazol-2-ylsulfanylmethyl)-4-ethoxy-3-(1-ethyl-1H-benzoimidazol-2-ylsulfanyl)-5-oxo-2,5-dihydro-furan-2-carboxylic acid ethyl ester] | ≤ 30 | ≤ 20 |
| CCOC(=O)C1(CSc2nc3ccccc3[se]2)OC(=O)C(O)=C1Sc1nc2ccccc2[se]1 (stereo not drawn) [3-(Benzoselenazol-2-ylsulfanyl)-2-(benzoselenazol-2-ylsulfanylmethyl)-4-hydroxy-5-oxo-2,5-dihydro-furan-2-carboxylic acid ethyl ester] | ≤ 30 | ≤ 20 |

The next lines start with the values.

| EC50 [1] [µM] | EC50 [2] [µM] | SMILES |
| --- | --- | --- |
| ≤ 30 | ≤ 20 | CCOC(=O)C1(CSc2ccc(C=CC(=O)OC)cc2)OC(=O)C(O)=C1Sc1ccc(C=CC(=O)OC)cc1 (stereo not drawn) [4-Hydroxy-3-[4-(2-methoxycarbonyl-vinyl)-phenylsulfanyl]-2-[4-(2-methoxycarbonyl-vinyl)-phenylsulfanylmethyl]-5-oxo-2,5-dihydro-furan-2-carboxylic acid ethyl ester] |
| ≤ 30 | ≤ 20 | CCOC(=O)C1(CSc2nc(-c3ccccc3)cs2)OC(=O)C(O)=C1Sc1nc(-c2ccccc2)cs1 (stereo not drawn) [4-Hydroxy-5-oxo-3-(4-phenyl-thiazol-2-ylsulfanyl)-2-(4-phenyl-thiazol-2-ylsulfanylmethyl)-2,5-dihydro-furan-2-carboxylic acid ethyl ester] |
| ≤ 30 | ≤ 20 | CCOC(=O)C1(CSC2CCCCC2)OC(=O)C(O)=C1SC1CCCCC1 (stereo not drawn) [3-Cyclohexylsulfanyl-2-cyclohexylsulfanylmethyl-4-hydroxy-5-oxo-2,5-dihydro-furan-2-carboxylic acid ethyl ester] |
